Here are results for five compounds from patent publication US9518038B2, “Condensation product of theanine derivative and carboxylic acid coumarin derivative, its intermediate, preparation method and use thereof” (SHANDONG YINGDONG YINGHAO BIOTECHNOLOGY, INC., priority 2012, dated 2016).

Structures are written as SMILES. A value given as a limit tells only on which side of the number the result lay.

The test system of one assay is NF-κB. Description: Western Blotting, NF-κB level. The conditions noted are these: human liver cancer cells, Lewis lung cancer cells and other cancer cell lines and tumor tissues, read-out: Effective concentration (IC50) for inhibition of NF-κB. Type of assay: cell-based. The text has this: (§1) Antibodies: primary antibodies of VEGFR, EGFR, c-Met, K-Ras, H-Ras, Akt, NF-κB, Cyclin D1, ER-alpha, Dvl-1, Dvl-2, Dvl-3, MMP-9, MMP2, β-catenin, Bcl-2, Bax, p53, p21, E-cadherin and Caspase3 protein, purchased from American Cell Signaling Technology Company and Santa Cruz Technology Company; and H3 acetylation, H4 acetylation and HDAC (HDAC3, HDAC4 and the like) Antibody Sample Kits, purchased from Cell Signaling Technology Company of the U.S.
(§2) (3) polyacrylamide gel electrophoresis (SDS-PAGE): an equal amount of protein lysate sample was used to separate protein, film transfer, and blocking, treated with appropriate primary antibodies and secondary antibodies in sequence, and the film was washed, then the color was developed with ECL kit, and a blot protein band was detected by exposure of an X-ray film; and a Gel-Pro Analyzer was used for quantitative analysis of gray degree, optical density value of the control group and the drug treatment group in various concentration were respectively compared with that of internal reference, the obtained ratios were respectively compared with the control group, and the protein expression level was semi-quantified.
For orientation: A western blot detects proteins with antibodies after separation by electrophoresis.

The test system of a further assay is Dvl-1. Description: Western Blotting, Dvl-1 level. The assay is classed as cell-based. The conditions noted are these: human liver cancer cells, Lewis lung cancer cells and other cancer cell lines and tumor tissues, read-out: Effective concentration (IC50) for inhibition of Dvl-1.
From the text: as §1, §2

Assay [1] concerns human cervical cancer cells Hela xenograft. Description: In-vivo growth of Hela xenografts in nude mice. The conditions noted are these: Mus musculus, ip, vs DMSO solvent control, read-out: Curative effect (inhibition rate %) of tumor weight; for inhibition in vivo at 60 mg/kg: 60 mg/kg intraperitoneal once a day; for inhibition in vivo at 90 mg/kg: 90 mg/kg intraperitoneal once a day. Further details: species or system BALB/c nude mice. The procedure:
(§3) RPMI1640 and DMEM culture solutions: Hyclone Company; inactivated fetal bovine serum: Hyclone Company, preserved at −20° C.; trypsin: Amersco Company; and 0.4% trypan blue: Sigma Company;
(§4) (3) Observation of growth of tumors in nude mice: the activities (including food intake, traits of urine and stool, mental state and the like) of the nude mice and the tumor growth time and growth situation of the transplanted tumors were observed every day, the body weight and the size of the tumors were measured once every 2-3 days. The long diameter a and the short diameter b (mm) of each tumor were measured by a vernier caliper to calculate the volume, wherein the volume V=π1/2·ab^2 (mm^3);
(§5) (4) sacrifice of animals: the mice were anesthetized and photoed after treatment experiments; the nude mice were sacrificed by breaking neck, the tumor tissues were stripped under sterile conditions and the weight of the tumors was weighed; and the effects of the drugs on pathology and toxicity of the various organs and tissues were detected.

For a further assay, the system named is HDAC4. Description: HDAC4 enzyme activity in nuclear extracts of human tumor xenografts of treated mice. Conditions: second value of the pair HDAC3 and HDAC4, SAHA 25 mg/kg. On the technique in general: In xenograft studies the graft and the host belong to different species.
Assay [2] concerns human pancreatic cancer cells PANC-1 xenograft. Description: In-vivo growth of PANC-1 xenografts in nude mice. Also on record: species or system BALB/c nude mice. Conditions: Mus musculus, ip, vs DMSO solvent control, read-out: Curative effect (inhibition rate %) of tumor weight; for inhibition in vivo at 60 mg/kg: 60 mg/kg intraperitoneal once a day; for inhibition in vivo at 90 mg/kg: 90 mg/kg intraperitoneal once a day. The procedure: as §3, §4, §5

Assay [3] relates to human pancreatic cancer cells PANC-1. Description: MTT growth inhibition, PANC-1 cells. Type of assay: cell-based. The conditions noted are these: 72 h after treatment, read-out: Drug concentration (IC50) at which 50% cancer cells survived.
A further assay addresses T1, EZH2 (Homo sapiens, UniProt Q15910).
T1 construct: the EZH2 enzyme was replaced with tumor protein extracts in each group; from tissue; host or cells: human tumour xenografts excised from treated nude mice
Description: EZH2 enzyme activity in protein extracts of human tumor xenografts of treated mice (EZH2 Assay Kit). The assay is classed as in vivo. The conditions noted are these: tumors excised 6 h after medication, SAHA 25 mg/kg.

The test system of a further assay is K-Ras. Description: Western Blotting, K-Ras level. The assay is classed as cell-based. Conditions: human liver cancer cells, Lewis lung cancer cells and other cancer cell lines and tumor tissues, read-out: Effective concentration (IC50) for inhibition of K-Ras.
From the text: as §1, §2

A further assay deals with Nuclear β-catenin. Description: Western Blotting, nuclear β-catenin level. The assay is classed as cell-based. The conditions noted are these: human liver cancer cells, Lewis lung cancer cells and other cancer cell lines and tumor tissues, read-out: Effective concentration (IC50) for inhibition of Nuclear β-catenin.
From the text: as §1, §2

The test system of assay [4] is human pancreatic cancer cells BxPC3. Description: MTT growth inhibition, BxPc3 cells. The assay is classed as cell-based. The conditions noted are these: Homo sapiens, BXPC-3, 72 h after treatment, read-out: Drug concentration (IC50) at which 50% cancer cells survived.

T1 sequence (Q15910 whole entry): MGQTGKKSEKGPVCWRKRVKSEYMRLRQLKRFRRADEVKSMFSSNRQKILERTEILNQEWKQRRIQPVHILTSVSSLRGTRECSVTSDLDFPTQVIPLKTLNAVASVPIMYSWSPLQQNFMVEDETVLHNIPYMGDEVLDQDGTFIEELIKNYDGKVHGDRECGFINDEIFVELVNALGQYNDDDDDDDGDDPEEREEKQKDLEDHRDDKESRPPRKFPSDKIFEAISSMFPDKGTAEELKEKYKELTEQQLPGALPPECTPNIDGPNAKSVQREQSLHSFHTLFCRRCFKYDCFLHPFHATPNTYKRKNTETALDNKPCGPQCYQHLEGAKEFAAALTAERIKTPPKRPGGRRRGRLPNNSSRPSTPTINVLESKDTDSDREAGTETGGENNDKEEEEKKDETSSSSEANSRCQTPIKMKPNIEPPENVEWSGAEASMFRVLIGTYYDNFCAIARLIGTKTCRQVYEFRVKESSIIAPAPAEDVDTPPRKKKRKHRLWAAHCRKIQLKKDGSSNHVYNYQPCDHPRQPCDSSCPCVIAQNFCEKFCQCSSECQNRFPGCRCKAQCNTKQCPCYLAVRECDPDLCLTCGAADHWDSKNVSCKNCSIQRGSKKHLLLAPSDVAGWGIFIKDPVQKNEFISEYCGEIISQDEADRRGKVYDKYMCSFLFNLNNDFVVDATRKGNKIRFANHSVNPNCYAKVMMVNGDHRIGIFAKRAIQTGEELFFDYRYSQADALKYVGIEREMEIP
T1 sequence (O75530 whole entry partner): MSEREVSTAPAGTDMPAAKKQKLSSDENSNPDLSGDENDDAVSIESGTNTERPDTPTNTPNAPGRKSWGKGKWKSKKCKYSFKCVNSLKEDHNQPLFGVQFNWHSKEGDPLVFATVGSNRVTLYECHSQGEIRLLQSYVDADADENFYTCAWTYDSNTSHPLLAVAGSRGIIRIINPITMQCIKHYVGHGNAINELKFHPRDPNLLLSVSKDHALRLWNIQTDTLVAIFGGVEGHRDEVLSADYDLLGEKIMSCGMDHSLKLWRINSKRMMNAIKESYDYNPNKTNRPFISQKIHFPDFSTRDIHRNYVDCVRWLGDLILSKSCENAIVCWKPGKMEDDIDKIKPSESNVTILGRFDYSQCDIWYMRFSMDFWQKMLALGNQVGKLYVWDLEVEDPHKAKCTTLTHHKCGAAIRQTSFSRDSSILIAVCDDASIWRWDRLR
T1 sequence (Q15022 whole entry partner): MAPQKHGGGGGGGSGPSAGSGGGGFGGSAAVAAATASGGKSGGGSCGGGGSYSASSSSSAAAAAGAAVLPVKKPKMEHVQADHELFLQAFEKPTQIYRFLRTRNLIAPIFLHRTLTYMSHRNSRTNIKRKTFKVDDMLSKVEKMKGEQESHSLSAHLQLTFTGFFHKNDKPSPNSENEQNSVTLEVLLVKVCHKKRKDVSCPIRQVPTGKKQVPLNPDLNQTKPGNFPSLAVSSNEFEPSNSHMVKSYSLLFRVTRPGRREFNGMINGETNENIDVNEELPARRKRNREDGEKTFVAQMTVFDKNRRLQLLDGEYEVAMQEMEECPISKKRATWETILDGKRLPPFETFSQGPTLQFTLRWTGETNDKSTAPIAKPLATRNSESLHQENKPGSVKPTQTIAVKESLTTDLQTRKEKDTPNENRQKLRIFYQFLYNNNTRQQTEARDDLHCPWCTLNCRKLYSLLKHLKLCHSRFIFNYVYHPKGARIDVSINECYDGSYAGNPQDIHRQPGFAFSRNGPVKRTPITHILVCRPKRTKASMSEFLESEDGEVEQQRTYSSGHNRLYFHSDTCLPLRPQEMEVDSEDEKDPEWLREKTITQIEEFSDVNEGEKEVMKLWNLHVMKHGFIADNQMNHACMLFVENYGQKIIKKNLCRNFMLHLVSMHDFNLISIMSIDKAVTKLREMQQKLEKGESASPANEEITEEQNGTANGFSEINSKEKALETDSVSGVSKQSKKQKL
Description for HDAC4: For the detection of the effect of the drugs on enzyme activity of EZH2 and HDAC of in-vivo tumors, the tumors were separately excised after 6 h of medication, total proteins and nucleoproteins were extracted separately to detect and analyze the activity of the enzyme.
(2) 50 μl of diluted sample solution was added into each reaction well, the plate was sealed with a plate-sealing film and reacted at room temperature for 30 min;
(3) the plate-sealing film was carefully peeled off, the liquid was removed, dried, 150 μl of washing liquid was added into each well, stood for 30 s, then the liquid was removed, repeated twice, and dried;
(4) 2 μl of HDAC enzyme or tumor tissue nuclear extracts was respectively uniformly mixed with 28 μl of diluted sample solution, added into the wells, the plate was sealed with the plate-sealing film and reacted at 37° C. for 60 min;
(5) the plate was washed for three times, wherein the operation was the same as that in (3); and a diluted antibody capture working solution was added into each reaction well according to 50 μl/well and reacted on a shaking bed at room temperature for 60 min;
(6) the plate was washed for four times, wherein the operation was the same as that in (3);
(7) a diluted antibody detection working solution was added into each reaction well according to 50 μl/well and reacted at room temperature for 30 min;
(8) the plate was washed for five times, wherein the operation was the same as that in (3);
a color developing agent was added according to 100 μl/well, and performed dark development for 2-10 min;
(9) 50 μl of stop solution was added into each well for stopping the reaction when the color in the well with a standard product turned blue with medium intensity, the color immediately turned yellow from blue after the addition;
(10) the light absorbance (OD value) of each well was measured in sequence at the wavelength of 450 nm; wherein the measurement should be performed within 15 min after addition of the stop solution; and

Regarding `CCNC(=O)CC[C@@H](NC(=O)c1cc2cc(Cl)cc(Cl)c2oc1=O)C(=O)OCC` [Compound Ig, (R)-2-(6,8-dichloro-2-oxo-2H-benzopyran-3-carboxamido)-5-ethylamino-5-oxo-pentanoic ethyl ester], the IC50 is under 100 µM in the assay on NF-κB; under 125 µM in the assay with Dvl-1; 71 µM in [3]; under 65 µM in the assay on K-Ras; under 100 µM in the assay with Nuclear β-catenin; 119 µM in [4]. For the same compound, the inhibition in vivo at 60 mg/kg in assay [1] is 56.7%; in [2], 55.6%. Moreover, the results for the inhibition in vivo at 90 mg/kg in assay [1] and in [2] were 70.3% and 68.9%, respectively. Besides, the “decrease of HDAC4 enzyme activity/inhibition rate” value is reported as 63%*(A549)- in the assay with HDAC4 (A549 tumor grown in vivo), 68%*(MCF7) with HDAC4 (MCF7 tumor grown in vivo), 66%*(MDA-MB231) with HDAC4 (MDA-MB231 tumor grown in vivo) and 64%*(SMMC7721); in the assay with HDAC4 (SMMC7721 tumor grown in vivo). Also, the “decrease of EZH2 enzyme activity/inhibition rate” value at EZH2 (A549 tumor grown in vivo) is 57%*(A549)-; at EZH2 (MCF7 tumor grown in vivo) it was 65%*(MCF7); on EZH2 (MDA-MB231 tumor grown in vivo), 61%*(MDA-MB231); at EZH2 (SMMC7721 tumor grown in vivo) it was 58%*(SMMC7721);.

Regarding `CCNC(=O)CCC(NC(=O)c1cc2ccccc2oc1=O)C(=O)OCC` (centres unmarked) [Compound Ib, ethyl 5-ethylamino-5-oxo-2-(2-oxo-2H-benzopyran-3-carboxamido)pentanoate], the IC50 in the assay with NF-κB was under 120 µM; in the assay with Dvl-1 it was under 300 µM; in [3] it was 65 µM; with K-Ras, under 75 µM; in the assay on Nuclear β-catenin, under 120 µM; in assay [4] it was 105 µM. The inhibition in vivo at 60 mg/kg in assay [1] was 53.9%; in assay [2] it was 54.6%. Further, the inhibition in vivo at 90 mg/kg was determined as 63.8% in assay [1] and 65.9% in assay [2]. Also, the entries for the “decrease of HDAC4 enzyme activity/inhibition rate” value in the assay on HDAC4 (A549 tumor grown in vivo) and with HDAC4 (SMMC7721 tumor grown in vivo) were 62%*(A549)- and 61%*(SMMC-7721), respectively. The “decrease of EZH2 enzyme activity/inhibition rate” value was 54%*(A549)- at EZH2 (A549 tumor grown in vivo) and 57%*(SMMC-7721) at EZH2 (SMMC7721 tumor grown in vivo).

`CCNC(=O)CCC(NC(=O)c1cc2cc([N+](=O)[O-])ccc2oc1=O)C(=O)OCC` (stereo in doubt) [Compound If, (R)-2-(6-nitro-2-oxo-2H-benzopyran-3-carboxamido)-5-ethylamino-5-oxo-pentanoic acid ethyl ester]: the IC50 in the assay on NF-κB is under 60 µM; in the assay with Dvl-1, under 200 µM; in [3], 77 µM; in the assay on K-Ras, under 55 µM; in the assay on Nuclear β-catenin it was under 90 µM; in [4], 180 µM. The inhibition in vivo at 60 mg/kg amounted to 50.9% in [1] and 53.6% in assay [2]. For the same compound, the inhibition in vivo at 90 mg/kg was 66.8% in assay [1] and 67.3% in [2]. In addition, the “decrease of HDAC4 enzyme activity/inhibition rate” value was 75%*(A549)- in the assay on HDAC4 (A549 tumor grown in vivo), 69%*(MCF7) in the assay on HDAC4 (MCF7 tumor grown in vivo), 67%*(MDA-MB231) with HDAC4 (MDA-MB231 tumor grown in vivo) and 68%*(SMMC7721); with HDAC4 (SMMC7721 tumor grown in vivo). In addition, the “decrease of EZH2 enzyme activity/inhibition rate” value is 65%*(A549)- on EZH2 (A549 tumor grown in vivo), 66%*(MCF7) on EZH2 (MCF7 tumor grown in vivo), 63%*(MDA-MB231) on EZH2 (MDA-MB231 tumor grown in vivo) and 64%*(SMMC7721); on EZH2 (SMMC7721 tumor grown in vivo).

For `CCNC(=O)CCC(NC(=O)c1cc2ccccc2oc1=O)C(=O)OC` (centres unmarked) [Compound Ia, methyl 5-ethylamino-5-oxo-2-(2-oxo-2H-benzopyran-3-carboxamido)pentanoate], the IC50 in the assay with NF-κB is under 125 µM; with Dvl-1, under 135 µM; in assay [3], 67 ± 30 µM; in the assay with K-Ras, under 85 µM; in the assay with Nuclear β-catenin, under 120 µM; in assay [4], 350 µM. The inhibition in vivo at 60 mg/kg in assay [1] amounted to 54.7%; in assay [2] it was 55.8%. Also, the inhibition in vivo at 90 mg/kg was 62.9% in assay [1] and 60.5% in assay [2]. Further, in the assay on HDAC4 (SMMC7721 tumor grown in vivo), the “decrease of HDAC4 enzyme activity/inhibition rate” value is given as 58%*(SMMC7721). Also, the “decrease of EZH2 enzyme activity/inhibition rate” value on EZH2 (SMMC7721 tumor grown in vivo) is 54%*(SMMC-7721).

On to `CCNC(=O)CC[C@@H](NC(=O)c1cc2cc(Br)ccc2oc1=O)C(=O)OCC` [Compound Id, (R)-2-(6-Br-2-oxo-2H-benzopyran-3-carboxamido)-5-ethylamino-5-oxo-pentanoic acid ethyl ester], for which the IC50 with NF-κB is under 80 µM; with Dvl-1, under 250 µM; in assay [3], 55 µM; with K-Ras, under 60 µM; with Nuclear β-catenin it was under 100 µM; in assay [4], 116 µM. Further, the inhibition in vivo at 60 mg/kg came out at 57.9% in assay [1] and 54.2% in assay [2]. Further, the inhibition in vivo at 90 mg/kg turned out to be 71.9% in assay [1] and 64.8% in assay [2]. Moreover, the “decrease of HDAC4 enzyme activity/inhibition rate” value in the assay with HDAC4 (A549 tumor grown in vivo) is on record as 73%*(A549)-; in the assay with HDAC4 (MCF7 tumor grown in vivo) it was 63%*(MCF7); in the assay with HDAC4 (MDA-MB231 tumor grown in vivo), 65%*(MDA-MB231); with HDAC4 (SMMC7721 tumor grown in vivo) it was 67%*(SMMC7721);. Moreover, the “decrease of EZH2 enzyme activity/inhibition rate” value is reported as 61%*(A549)- at EZH2 (A549 tumor grown in vivo), 56%*(MCF7) at EZH2 (MCF7 tumor grown in vivo), 58%*(MDA-MB231) at EZH2 (MDA-MB231 tumor grown in vivo) and 59%*(SMMC7721); at EZH2 (SMMC7721 tumor grown in vivo).
